{"source": "patent US9079821B2", "about": "“Quinone based nitric oxide donating compounds” (NICOX S.A., priority 2011, dated 2015)", "key": {"[1]": {"test_system": "rat L-NAME-induced hypertension", "assay": "Rat L-NAME-induced hypertension, systolic blood pressure after single oral dose", "assay_type": "in vivo", "settings": "for Delta vs basal (mmHg): Comp. (6) 100 mg/kg oral, L-NAME 50 mg/kg i.p.", "procedure": "To assess the in vivo NO-dependent activity, Compound (6) was evaluated for systolic blood pressure (SBP) reduction efficacy in a rat model of NO-deprivation induced by L-NAME and compared with 5-ISMN.\n(§1) Fasted male SD rats (250-300 g, n=3-5 per group), obtained from Harlan Italy (Correzzana, Milan, Italy) were orally treated with tested compounds or vehicle (DMSO:Methocel 1% 2/98 v/v) in a total volume of 4 ml/kg by gavage. At each time point (1, 3, 6 and 24 h) animals were deeply anesthetized with Zoletil® 100 (3 mg/kg), given intramuscularly. Thereafter, a pressure catheter (Samba Sensors, Harvard Apparatus, UK) was introduced into the common carotid artery for central blood pressure measurement. Pressure transducer was connected to a personal computer, in order to allow real time monitor of the pressure tracing. After 10 minutes of basal recording, L-NAME (50 mg/kg) was administered intraperitoneally and the effect on SBP monitored. When the SBP stabilized (5 minutes without variations) the recording was stopped. To further confirm that functional activity was NO-dependent, at each time point blood ^15N-nitrite levels were measured following the procedure described in Example 12."}, "[2]": {"test_system": "rat L-NAME-induced hypertension", "assay": "In vivo tolerance evaluation (L-NAME-induced hypertension after 5-day oral treatment)", "settings": "for Delta vs basal (mmHg): peak effect 3 hours", "procedure": "as §1\nTo investigate whether the compound (6) induced nitrate tolerance, as observed for most of the drugs belonging to the nitrate class, the L-NAME-induced hypertension rat model described in Example 7 was performed following a repeated oral treatment. Rats were orally treated for 5 days with vehicle, compound (6) (100 mg/kg) or 5-ISMN (30 mg/kg). […] The experiments were performed at the peak effect (1 hour for 5-ISMN and 3 hours for Compound (6)), results are reported in Table 3."}, "[3]": {"test_system": "NADPH-induced lipidic peroxidation of membrane lipids (hepatic microsomal membranes)", "assay": "In vitro antioxidant activity (TBARS test), Method A (ADP-FeCl3 and NADPH)", "assay_type": "biochemical, rat", "settings": "inhibition of TBARS production after 30 min incubation, read-out: Antioxidant activity IC50 μM (CL 95%)", "procedure": "The antioxidant properties of compounds (6) (disclosed in example 1) and compound (23) (disclosed in example 19) and reference antioxidant compounds were assessed after NADPH-induced lipidic peroxidation of membrane lipids in rat hepatocytes using the detection of 2-thiobarbituric acid reactive substances (TBARS) by visible spectroscopy.\nHepatic microsomal membranes from male Wistar rats (200-250 g) were prepared by differential centrifugation (8000 g, 20 min; 120000 g, 1 h) in a HEPES/sucrose buffer (10 mM, 250 mM, pH 7.4) and stored at −80° C. Incubation was performed at 37° C. in a Tris-HCl/KCl (100 mM/150 mM, pH 7.4) containing microsomal membranes (2 mg prot/mL), sodium ascorbate (100 μM), and DMSO solutions of the tested compounds. Lipid peroxidation was initiated by adding ADP-FeCl3 and NADPH (Method A) or 2.5 μM FeSO4 (Method B) (as described by Boschi D. et al., J. Med. Chem. 2006, 49:2886-2897). Aliquots were taken from the incubation mixture at 5, 15, and 30 min and treated with trichloroacetic acid (TCA) 10% w/v. Lipid peroxidation was assessed by spectrophotometric (543 nm) determination of the TBARS consisting mainly of malondialdehyde (MDA). TBARS concentrations (expressed in nmol/mg protein) were obtained by interpolation with a MDA standard curve. The antioxidant activity of tested compounds was evaluated as the percent inhibition of TBARS production with respect to control samples, using the values obtained after 30 min of incubation. IC50 values were calculated by nonlinear regression analysis."}}}
{"molecule": "COC1=C(OC)C(=O)C(CCCCCCCCCCO[N+](=O)[O-])=C(C)C1=O", "note": "[Compound (6), 10-(4,5-dimethoxy-2-methyl-3,6-dioxocyclohexa-1,4-dienyl)decyl nitrate]", "values": [{"measurement": "Delta vs basal (mmHg)", "setting": "[1]; 1 hour", "value": "53.5 ± 4.5", "unit": "mmHg"}, {"measurement": "Delta vs basal (mmHg)", "setting": "[1]; 3 hours", "value": "14 ± 3.8", "unit": "mmHg"}, {"measurement": "Delta vs basal (mmHg)", "setting": "[1]; 6 hours", "value": "38 ± 3.6", "unit": "mmHg"}, {"measurement": "Delta vs basal (mmHg)", "setting": "[1]; 24 hours", "value": "67.7 ± 16.8", "unit": "mmHg"}, {"measurement": "time over which L-NAME induced SBP increase was prevented after treatment", "setting": "[1]; Compound (6) 100 mg/kg, single oral administration", "value": 6, "unit": "h"}, {"measurement": "Delta vs basal (mmHg)", "setting": "[2]; acute treatment, Comp. (6) 100 mg/kg oral", "value": "14 ± 3.8", "unit": "mmHg"}, {"measurement": "efficacy against L-NAME-induced hypertension after 5-day treatment (nitrate tolerance), in words", "setting": "[2]; compound (6) 100 mg/kg oral, 5 days", "value": "counteracted L-NAME-induced hypertension after 5-day oral treatment"}, {"measurement": "Delta vs basal (mmHg)", "setting": "[2]; repeated (5 days) oral treatment, Comp. (6) 100 mg/kg", "value": "27.8 ± 4", "unit": "mmHg"}, {"measurement": "IC50", "setting": "[3]", "value": 2, "unit": "µM"}]}
